48 compounds from the Kinase Knowledgebase extract (Sharma et al. 2016) can be followed below.

The test addresses PIK3CD (Human) (UniProt O00329). Nature of the test: Cell-Based Assay. The conditions noted are these: u937.

Sequence of PIK3CD (Human) (O00329 whole entry, looked up): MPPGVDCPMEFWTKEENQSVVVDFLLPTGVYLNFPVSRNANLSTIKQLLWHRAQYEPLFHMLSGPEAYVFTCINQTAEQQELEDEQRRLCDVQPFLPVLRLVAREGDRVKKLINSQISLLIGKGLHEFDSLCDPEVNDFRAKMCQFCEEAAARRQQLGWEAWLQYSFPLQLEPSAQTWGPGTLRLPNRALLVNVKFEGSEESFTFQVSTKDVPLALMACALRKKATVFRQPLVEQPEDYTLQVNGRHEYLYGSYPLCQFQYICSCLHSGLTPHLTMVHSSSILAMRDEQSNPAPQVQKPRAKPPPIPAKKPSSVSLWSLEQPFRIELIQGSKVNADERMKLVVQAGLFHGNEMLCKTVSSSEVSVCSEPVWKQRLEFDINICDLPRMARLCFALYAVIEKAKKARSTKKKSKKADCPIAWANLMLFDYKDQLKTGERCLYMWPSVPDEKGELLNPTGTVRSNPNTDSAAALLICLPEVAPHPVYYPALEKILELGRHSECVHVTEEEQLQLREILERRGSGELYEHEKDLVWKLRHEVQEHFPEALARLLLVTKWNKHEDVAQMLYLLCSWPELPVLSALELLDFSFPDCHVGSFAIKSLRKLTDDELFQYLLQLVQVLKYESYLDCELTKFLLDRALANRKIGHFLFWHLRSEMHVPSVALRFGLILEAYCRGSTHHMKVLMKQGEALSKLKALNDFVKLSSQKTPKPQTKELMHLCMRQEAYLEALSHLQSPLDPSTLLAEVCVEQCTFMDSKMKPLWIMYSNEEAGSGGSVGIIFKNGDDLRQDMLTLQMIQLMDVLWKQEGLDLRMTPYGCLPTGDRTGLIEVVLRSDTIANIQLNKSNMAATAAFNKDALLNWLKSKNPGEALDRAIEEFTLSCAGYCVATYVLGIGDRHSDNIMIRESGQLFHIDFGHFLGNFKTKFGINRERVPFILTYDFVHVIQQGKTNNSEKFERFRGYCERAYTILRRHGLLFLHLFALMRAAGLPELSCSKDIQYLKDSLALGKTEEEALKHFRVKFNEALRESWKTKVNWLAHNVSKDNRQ

Take `C#Cc1cccc2nc(Cn3nc(-c4cccc(O)c4)c4c(N)ncnc43)n(Cc3cc(C)on3)c(=O)c12`: the IC50 – broadly, the concentration that inhibits the measured activity by half – was < 10 nM.

`C#Cc1cccc2nc(Cn3nc(-c4ccc(O)cc4)c4c(N)ncnc43)n(Cc3ccc(Cl)cc3F)c(=O)c12`: the IC50 was < 10 nM.

For the compound `Nc1ncnc2c1c(-c1ccc(O)cc1)nn2Cc1nc2cccc(C#CCC3CCCC3)c2c(=O)n1Cc1ccccc1Cl`, the IC50 is < 10 nM.

In the case of `Nc1ncnc2c1c(-c1cccc(O)c1)nn2Cc1nc2cccc(C#CCCCC(=O)N3CCC(N4CCOCC4)CC3)c2c(=O)n1Cc1ccccc1Cl`, the IC50 is < 10 nM.

Take `CN(C)C1CCN(C(=O)CCCC#Cc2cccc3nc(Cn4nc(-c5cccc(O)c5)c5c(N)ncnc54)n(Cc4ccccc4Cl)c(=O)c23)C1` (stereo not drawn): the IC50 lay in the range of 10 to 1000 nM.

`CN1CCN(C(=O)CCCC#Cc2cccc3nc(Cn4nc(-c5cccc(O)c5)c5c(N)ncnc54)n(Cc4ccccc4Cl)c(=O)c23)CC1`: the IC50 was < 10 nM.

Regarding `COCCN(CCOC)C(=O)CCCC#Cc1cccc2nc(Cn3nc(-c4ccc(O)cc4)c4c(N)ncnc43)n(Cc3ccccc3Cl)c(=O)c12`, the IC50 was < 10 nM.

Take `COCC#Cc1cccc2nc(Cn3nc(-c4cccc(O)c4)c4c(N)ncnc43)n(Cc3ccc(Cl)cc3)c(=O)c12`: the concentration for half-maximal inhibition (IC50) was < 10 nM.

On to `C#Cc1cccc2nc(Cn3nc(-c4ccc(O)cc4)c4c(N)ncnc43)n(Cc3cccc(OC)c3)c(=O)c12`, for which the IC50 is < 10 nM.

Consider `Nc1ncnc2c1c(-c1ccc(O)cc1)nn2Cc1nc2cccc(C#CCCCC(=O)N3CCCCC3)c2c(=O)n1Cc1ccccc1Cl`, for which the IC50 is < 10 nM.

As to `C#Cc1cccc2nc(Cn3nc(-c4ccc(O)cc4)c4c(N)ncnc43)n(Cc3ccc(OC)cc3)c(=O)c12`, the IC50 was < 10 nM.

Turning to `C#Cc1cccc2nc(Cn3nc(-c4cccc(O)c4)c4c(N)ncnc43)n(Cc3cccc(C#N)c3)c(=O)c12`, the IC50 is < 10 nM.

With `C#Cc1cccc2nc(Cn3nc(-c4cccc(O)c4)c4c(N)ncnc43)n(Cc3ccccc3F)c(=O)c12`, the IC50 is < 10 nM.

Regarding `CC(=O)N1CCN(C(=O)CCCC#Cc2cccc3nc(Cn4nc(-c5ccc(O)cc5)c5c(N)ncnc54)n(Cc4ccccc4Cl)c(=O)c23)CC1`, the IC50 is < 10 nM.

As for `Nc1ncnc2c1c(-c1cccc(O)c1)nn2Cc1nc2cccc(C#CCCCC(=O)N3CCOCC3)c2c(=O)n1Cc1ccc2occc2c1`, the IC50 is < 10 nM.

In the case of `C#Cc1cccc2nc(Cn3nc(-c4cccc(O)c4)c4c(N)ncnc43)n(Cc3ccc(Cl)cc3)c(=O)c12`, the IC50 was < 10 nM.

As for `Nc1ncnc2c1c(-c1cccc(O)c1)nn2Cc1nc2cccc(C#CCCCCC(=O)O)c2c(=O)n1Cc1ccccc1Cl`, the IC50 is < 10 nM.

For `C#Cc1cccc2nc(Cn3nc(-c4ccc(O)cc4)c4c(N)ncnc43)n(Cc3cccc(C(F)(F)F)c3)c(=O)c12`, the IC50 was < 10 nM.

As for `COc1cc(-c2nn(Cc3nc4cccc(C#CCCCC(=O)N5CCOCC5)c4c(=O)n3Cc3ccccc3Cl)c3ncnc(N)c23)ccc1O`, the IC50 is < 10 nM.

For the compound `C#Cc1cccc2nc(Cn3nc(-c4ccc(O)cc4)c4c(N)ncnc43)n(Cc3ccc(Cl)cc3)c(=O)c12`, the IC50 is < 10 nM.

As to `N#Cc1cccc(Cn2c(Cn3nc(-c4cccc(O)c4)c4c(N)ncnc43)nc3cccc(C#CCOCCOCCO)c3c2=O)c1`, the IC50 is < 10 nM.

Consider `C#Cc1cccc2nc(Cn3nc(-c4cccc(O)c4)c4c(N)ncnc43)n(Cc3cccc(Cl)c3)c(=O)c12`, for which the IC50 is < 10 nM.

Turning to `Nc1ncnc2c1c(-c1ccc(O)cc1)nn2Cc1nc2cccc(C#CCCCC(=O)NC3CCOCC3)c2c(=O)n1Cc1ccccc1Cl`, the IC50 was < 10 nM.

Regarding `COCCNC(=O)CCCC#Cc1cccc2nc(Cn3nc(-c4cccc(O)c4)c4c(N)ncnc43)n(Cc3ccccc3Cl)c(=O)c12`, the IC50 is < 10 nM.

Consider `COCC#Cc1cccc2nc(Cn3nc(-c4ccc(O)cc4)c4c(N)ncnc43)n(Cc3cccc(OC)c3)c(=O)c12`, for which the IC50 is < 10 nM.

`CN1CCCN(C(=O)CCCC#Cc2cccc3nc(Cn4nc(-c5ccc(O)cc5)c5c(N)ncnc54)n(Cc4ccccc4Cl)c(=O)c23)CC1`: the IC50 is < 10 nM.

On to `C#Cc1cccc2nc(Cn3nc(-c4cccc(O)c4)c4c(N)ncnc43)n(Cc3ccc(C(F)(F)F)cc3)c(=O)c12`, for which the half-maximal inhibitory concentration (IC50) was < 10 nM.

For the compound `Nc1ncnc2c1c(-c1cccc(O)c1)nn2Cc1nc2cccc(C#CCCCC(=O)N3CCOCC3)c2c(=O)n1Cc1ccccc1Cl`, the IC50 is < 10 nM.

`Nc1ncnc2c1c(-c1cccc(O)c1)nn2Cc1nc2cccc(C#CCCCC(=O)Nc3ccncc3)c2c(=O)n1Cc1ccccc1Cl` registered an IC50 of 10 to 1000 nM.

Turning to `Nc1ncnc2c1c(-c1ccc(O)cc1)nn2Cc1nc2cccc(C#CCCCNC3CCCC3)c2c(=O)n1Cc1ccccc1Cl`, the half-inhibitory concentration (IC50) was < 10 nM.

`C#Cc1cccc2nc(Cn3nc(-c4ccc(O)cc4)c4c(N)ncnc43)n(Cc3ccccc3Cl)c(=O)c12`: the IC50 was < 10 nM.

On to `Nc1ncnc2c1c(-c1ccc(O)cc1)nn2Cc1nc2cccc(C#CCCCC(=O)Nc3ccncc3)c2c(=O)n1Cc1ccccc1Cl`, for which the IC50 was < 10 nM.

On to `COc1cccc(Cn2c(Cn3nc(-c4ccc(O)cc4)c4c(N)ncnc43)nc3cccc(C#CCCCC(=O)N4CCOCC4)c3c2=O)c1F`, for which the IC50 was < 10 nM.

On to `Nc1ncnc2c1c(-c1cccc(O)c1)nn2Cc1nc2cccc(C#CCCC(=O)N3CCOCC3)c2c(=O)n1Cc1ccccc1Cl`, for which the IC50 was < 10 nM.

`C#Cc1cccc2nc(Cn3nc(-c4ccc(O)cc4)c4c(N)ncnc43)n(Cc3ccc(C#N)cc3)c(=O)c12`: the IC50 is < 10 nM.

For `C#Cc1cccc2nc(Cn3nc(-c4ccc(O)cc4)c4c(N)ncnc43)n(Cc3cc(OC)ccc3F)c(=O)c12`, the IC50 is < 10 nM.

Regarding `C#Cc1cccc2nc(Cn3nc(-c4cccc(O)c4)c4c(N)ncnc43)n(Cc3cccc(S(C)(=O)=O)c3)c(=O)c12`, the IC50 was < 10 nM.

On to `COCCOCCOCC#Cc1cccc2nc(Cn3nc(-c4cccc(O)c4)c4c(N)ncnc43)n(Cc3ccccc3F)c(=O)c12`, for which the IC50 is < 10 nM.

As to `Nc1ncnc2c1c(-c1cccc(O)c1)nn2Cc1nc2cccc(C#CCCNC(=O)N3CCOCC3)c2c(=O)n1Cc1ccccc1Cl`, the IC50 is < 10 nM.

Take `C#Cc1cccc2nc(Cn3nc(-c4ccc(O)cc4)c4c(N)ncnc43)n(Cc3ccc(Cl)c(Cl)c3)c(=O)c12`: the IC50 was < 10 nM.

On to `C#Cc1cccc2nc(Cn3nc(-c4ccc(O)cc4)c4c(N)ncnc43)n(Cc3ccccc3F)c(=O)c12`, for which the IC50 was < 10 nM.

Take `Nc1ncnc2c1c(-c1cccc(O)c1)nn2Cc1nc2cccc(C#CCCCCC(=O)N3CCOCC3)c2c(=O)n1Cc1ccccc1Cl`: the IC50 is < 10 nM.

With `NC(=O)NCC#Cc1cccc2nc(Cn3nc(-c4ccc(O)cc4)c4c(N)ncnc43)n(Cc3ccccc3Cl)c(=O)c12`, the IC50 is < 10 nM.

In the case of `C#Cc1cccc2nc(Cn3nc(-c4cccc(O)c4)c4c(N)ncnc43)n(Cc3cccc(C(F)(F)F)c3)c(=O)c12`, the IC50 was < 10 nM.

Regarding `C#Cc1cccc2nc(Cn3nc(-c4ccc(O)cc4)c4c(N)ncnc43)n(Cc3cccc(Cl)c3)c(=O)c12`, the IC50 is < 10 nM.

For `COCCN(CCCC#Cc1cccc2nc(Cn3nc(-c4ccc(O)cc4)c4c(N)ncnc43)n(Cc3ccccc3Cl)c(=O)c12)CCOC`, the IC50 was < 10 nM.

Regarding `CN(C)C(=O)CCCC#Cc1cccc2nc(Cn3nc(-c4ccc(O)cc4)c4c(N)ncnc43)n(Cc3ccccc3Cl)c(=O)c12`, the IC50 was < 10 nM.

For `Nc1ncnc2c1c(-c1ccc(O)cc1)nn2Cc1nc2cccc(C#CCCCC(=O)N3CCOCC3)c2c(=O)n1Cc1ccccc1F`, the IC50 is < 10 nM.
